Test results from the supplement of paper PMC12137928.
Counter-ions that a name gives are not always drawn.

System: HCT116
Details: 72 h
Method in brief: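 HCT116 cells went into 1536-well plates at 250 per well. CellTiter-Glo luminescence was expressed relative to vehicle (0%) and positive control (-100%) and then pattern-corrected. Both IC50 and maximal efficacy were taken from four-parameter Hill fits.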

`C#C[C@]1(OC(C)=O)CC[C@H]2[C@@H]3CCC4=CC(=O)CC[C@@H]4[C@H]3CC[C@@]21C` [NORETHINDRONE ACETATE] was tested, and the IC50 cell viability (ICRF193 0 nM) was greater than 45.8 µM and the IC50 cell viability (ICRF193 200 nM) was greater than 45.8 µM.

Work on `C[C@@H]1C[C@H]2[C@@H]3CCC4=CC(=O)C=C[C@]4(C)[C@@]3(F)[C@@H](O)C[C@]2(C)[C@@]1(O)C(=O)CO` [Dexamethasone] yielded an IC50 cell viability (ICRF193 0 nM) greater than 45.8 µM and an IC50 cell viability (ICRF193 200 nM) greater than 45.8 µM.

With `CCCCCC/C=C\CCCCCCCC(=O)O` [9(Z)-Hexadecenoic acid] the IC50 cell viability (ICRF193 0 nM) was greater than 45.8 µM and the IC50 cell viability (ICRF193 200 nM) was greater than 45.8 µM.

With `CCCCCCCCCCCCCCCCCC(=O)OCCO` [2-Hydroxyethyl octadecanoate] the IC50 cell viability (ICRF193 0 nM) was greater than 45.8 µM and the IC50 cell viability (ICRF193 200 nM) was greater than 45.8 µM.

`C[C@](N)(Cc1ccc(O)cc1)C(=O)O` [Metyrosine] showed an IC50 cell viability (ICRF193 0 nM) greater than 45.8 µM and an IC50 cell viability (ICRF193 200 nM) greater than 45.8 µM.

With `Cc1nnc(NS(=O)(=O)c2ccc(N)cc2)s1` [Sulfamethizole] the IC50 cell viability (ICRF193 0 nM) was greater than 45.8 µM and the IC50 cell viability (ICRF193 200 nM) was greater than 45.8 µM.

`Cc1cccc(C)c1OCC(C)N` (stereo not given) [Mexiletene hydrochloride] gave an IC50 cell viability (ICRF193 0 nM) greater than 45.8 µM and an IC50 cell viability (ICRF193 200 nM) greater than 45.8 µM.

Compound `C=CCOc1ccc(CC(=O)O)cc1Cl` [Alclofenac] has an IC50 cell viability (ICRF193 0 nM) greater than 45.8 µM and an IC50 cell viability (ICRF193 200 nM) greater than 45.8 µM.

`COc1cc(C)c(/C=C/C(C)=C/C=C/C(C)=C/C(=O)O)c(C)c1C` [Acitretin] was tested, and the IC50 cell viability (ICRF193 0 nM) was greater than 45.8 µM and the IC50 cell viability (ICRF193 200 nM) was greater than 45.8 µM.

`O=C1O[C@H]([C@@H](O)CO)C(O)=C1O` [L-Ascorbic acid] gave an IC50 cell viability (ICRF193 0 nM) greater than 45.8 µM and an IC50 cell viability (ICRF193 200 nM) greater than 45.8 µM.

With `Nc1ccc([As](=O)(O)O)cc1` [(4-Aminophenyl)arsonic acid] the IC50 cell viability (ICRF193 0 nM) was greater than 45.8 µM and the IC50 cell viability (ICRF193 200 nM) was greater than 45.8 µM.

In the case of `NC(=O)c1ncn([C@@H]2O[C@H](CO)[C@@H](O)[C@H]2O)c1N` [Acadesine], the IC50 cell viability (ICRF193 0 nM) is reported as greater than 45.8 µM and the IC50 cell viability (ICRF193 200 nM) is reported as greater than 45.8 µM.

Work on `C[C@]12CC[C@@H]3c4ccc(OS(=O)(=O)O)cc4CC[C@H]3[C@@H]1CCC2=O` [ESTROPIPATE] yielded an IC50 cell viability (ICRF193 0 nM) greater than 45.8 µM and an IC50 cell viability (ICRF193 200 nM) greater than 45.8 µM.

`CC1=CCC(O)(C(C)C)CC1` (stereo not given) [Terpineol] gave an IC50 cell viability (ICRF193 0 nM) greater than 45.8 µM and an IC50 cell viability (ICRF193 200 nM) greater than 45.8 µM.

`Cc1cccc(O)c1` [m-Cresol] was tested, and the IC50 cell viability (ICRF193 0 nM) was greater than 45.8 µM and the IC50 cell viability (ICRF193 200 nM) was greater than 45.8 µM.

In the case of `Cc1c(C)c2c(c(C)c1OC(=O)c1cccnc1)CC[C@@](C)(CCC[C@H](C)CCC[C@H](C)CCCC(C)C)O2` (racemic) [DL-alpha Tocopheryl nicotinate], the IC50 cell viability (ICRF193 0 nM) is reported as greater than 45.8 µM and the IC50 cell viability (ICRF193 200 nM) is reported as greater than 45.8 µM.

`CC(=O)OCC[N+](C)(C)C` [Acetylcholine chloride] showed an IC50 cell viability (ICRF193 0 nM) greater than 45.8 µM and an IC50 cell viability (ICRF193 200 nM) greater than 45.8 µM.

In the case of `CC1(C)O[C@@H]2C[C@H]3[C@@H]4CCC5=CC(=O)C=C[C@]5(C)[C@@]4(F)[C@@H](O)C[C@]3(C)[C@]2(C(=O)CO)O1` [Triamcinolone acetonide], the IC50 cell viability (ICRF193 0 nM) is reported as greater than 45.8 µM and the IC50 cell viability (ICRF193 200 nM) is reported as greater than 45.8 µM.

For `COC(=O)CCCCC(CCSS/C(CCO)=C(/C)N(C=O)Cc1cnc(C)nc1N)SC(C)=O` (stereo not given) [Octotiamine], the IC50 cell viability (ICRF193 0 nM) was greater than 45.8 µM and the IC50 cell viability (ICRF193 200 nM) was greater than 45.8 µM.

`O=C(c1ccc(F)cc1)C1CCN(CCn2c(=O)[nH]c3ccccc3c2=O)CC1` [Ketanserin] showed an IC50 cell viability (ICRF193 0 nM) greater than 45.8 µM and an IC50 cell viability (ICRF193 200 nM) greater than 45.8 µM.

In the case of `CN1CCC2=C(C1)C(c1ccccc1)c1ccccc12` (stereo not given) [PHENINDAMINE], the IC50 cell viability (ICRF193 0 nM) is reported as greater than 45.8 µM and the IC50 cell viability (ICRF193 200 nM) is reported as greater than 45.8 µM.

Compound `c1cc(CN2CCCNCCNCCCNCC2)ccc1CN1CCCNCCNCCCNCC1` [Plerixafor hydrochloride] has an IC50 cell viability (ICRF193 0 nM) greater than 45.8 µM and an IC50 cell viability (ICRF193 200 nM) greater than 45.8 µM.

With `CCCCC(CC)COC(=O)c1ccc(N(C)C)cc1` (stereo not given) [2-Ethylhexyl 4-(dimethylamino)benzoate] the IC50 cell viability (ICRF193 0 nM) was greater than 45.8 µM and the IC50 cell viability (ICRF193 200 nM) was greater than 45.8 µM.

`O=C(O[C@H]1[C@H](OC(=O)c2cccnc2)[C@@H](OC(=O)c2cccnc2)[C@H](OC(=O)c2cccnc2)[C@@H](OC(=O)c2cccnc2)[C@H]1OC(=O)c1cccnc1)c1cccnc1` [INOSITOL NIACINATE] showed an IC50 cell viability (ICRF193 0 nM) greater than 45.8 µM and an IC50 cell viability (ICRF193 200 nM) greater than 45.8 µM.

Compound `CNC(C)CC1CCCC1` (stereo not given) [Cyclopentamine hydrochloride] has an IC50 cell viability (ICRF193 0 nM) greater than 45.8 µM and an IC50 cell viability (ICRF193 200 nM) greater than 45.8 µM.

For `NC1CCN(c2nc3c(cc2F)c(=O)c(C(=O)O)cn3-c2ccc(F)cc2F)C1` (stereo not given) [Tosufloxacin toluenesulfonic acid], the IC50 cell viability (ICRF193 0 nM) was greater than 45.8 µM and the IC50 cell viability (ICRF193 200 nM) was greater than 45.8 µM.

For `N[C@@H]1CCCCN(c2c(F)cc3c(=O)c(C(=O)O)cn(C4CC4)c3c2Cl)C1` [Besifloxacin Hydrochloride], the IC50 cell viability (ICRF193 0 nM) was greater than 45.8 µM and the IC50 cell viability (ICRF193 200 nM) was greater than 45.8 µM.

`CC1(C)S[C@@H]2[C@H](NC(=O)C(c3ccccc3)S(=O)(=O)O)C(=O)N2[C@H]1C(=O)O` (stereo not given in full) [Sulbenicillin disodium] showed an IC50 cell viability (ICRF193 0 nM) greater than 45.8 µM and an IC50 cell viability (ICRF193 200 nM) greater than 45.8 µM.

`Oc1ccc(Cl)c2cccnc12` [Cloxyquin] showed an IC50 cell viability (ICRF193 0 nM) greater than 45.8 µM and an IC50 cell viability (ICRF193 200 nM) greater than 45.8 µM.

With `NCCC[C@H](NC(=O)[C@@H]1CCCN1C(=O)[C@@H]1CSSC[C@H](N)C(=O)N[C@@H](Cc2ccc(O)cc2)C(=O)N[C@@H](Cc2ccccc2)C(=O)N[C@@H](CCC(N)=O)C(=O)N[C@@H](CC(N)=O)C(=O)N1)C(=O)NCC(N)=O` [ORNIPRESSIN] the IC50 cell viability (ICRF193 0 nM) was greater than 45.8 µM and the IC50 cell viability (ICRF193 200 nM) was greater than 45.8 µM.
